Results on 56 compounds are retold here after patent US11814364B2, “Pyridine N-oxide derivatives useful as factor XIa inhibitors” (Janssen Pharmaceutica NV, priority 2021, dated 2023).

Structures are written as SMILES.

Sequence of human plasma kallikrein (P03952 391-638 limits assumed): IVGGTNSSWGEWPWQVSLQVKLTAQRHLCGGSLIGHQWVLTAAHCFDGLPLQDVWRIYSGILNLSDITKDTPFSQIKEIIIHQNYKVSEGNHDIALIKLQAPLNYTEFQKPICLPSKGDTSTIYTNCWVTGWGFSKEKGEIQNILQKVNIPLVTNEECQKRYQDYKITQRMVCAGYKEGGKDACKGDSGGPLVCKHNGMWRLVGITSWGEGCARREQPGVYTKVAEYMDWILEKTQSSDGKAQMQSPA
Sequence of human plasma kallikrein (P03952 20-390 partner limits assumed): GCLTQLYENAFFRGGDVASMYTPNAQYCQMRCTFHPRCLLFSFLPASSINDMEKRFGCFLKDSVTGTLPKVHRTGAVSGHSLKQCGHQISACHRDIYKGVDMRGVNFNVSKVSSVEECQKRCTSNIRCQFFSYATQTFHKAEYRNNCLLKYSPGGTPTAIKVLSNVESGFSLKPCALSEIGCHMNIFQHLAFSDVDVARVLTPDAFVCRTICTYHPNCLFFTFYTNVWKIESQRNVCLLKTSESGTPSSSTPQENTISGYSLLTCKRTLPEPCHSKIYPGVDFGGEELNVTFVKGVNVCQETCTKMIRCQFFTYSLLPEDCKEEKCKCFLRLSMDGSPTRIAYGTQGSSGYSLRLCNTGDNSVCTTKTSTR

The test concerns the target human plasma kallikrein (Homo sapiens, UniProt P03952). Put plainly: Kallikrein inhibition FLINT assay with quenched AMC peptide substrate Z-Gly-Pro-Arg-AMC (end point EP or kinetic KIN reads). The test is classed as biochemical. Conditions: kinetic reads at 5 min intervals over 30 min; read-out: Kallikrein (KIN) IC50. A digest of the protocol: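 Enzyme and compound were preincubated 30 min before adding 50 μM AMC substrate in pH 7.5 Tris/NaCl/CaCl2/BSA/CHAPS buffer. AMC release was read at 30 min endpoint or every 5 min.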
On to `COc1cc(C(CC2CC2C(=O)N2CCCCC2)n2cc(-c3ccc(N)nc3C)cn2)[n+]([O-])cc1-c1c(-n2cnnn2)ccc(Cl)c1F` (centres unmarked) [Example P248], for which the IC50 was found to be 14.9 nM.

`COC(=O)Nc1ccc(-c2cnn(C(CC3CC3C(N)=O)c3ccc(-c4c(-n5cnnn5)ccc(Cl)c4F)c[n+]3[O-])c2)cc1` (centres unmarked) [Example P249]: the IC50 amounted to 668 nM.

As for `[O-][n+]1cc(-c2cc(Cl)ccc2-n2cnnn2)ccc1C(Cc1ccc(Cl)cc1)n1cc(-c2ccnc(C(F)(F)F)c2)cn1` (centres unmarked) [Example P250], the IC50 came out at 45.9 nM.

In the case of `CCOc1cc(C(CC2CC2)n2cc(-c3ccncc3)cn2)[n+]([O-])cc1-c1c(-n2cnnn2)ccc(Cl)c1F` (centres unmarked) [Example P251], the IC50 turned out to be 2.5 nM.

In the case of `O=C(C1CC1CC(c1ccc(-c2c(-n3cnnn3)ccc(Cl)c2F)c[n+]1[O-])n1cc(-c2ccncc2)cn1)N1CCCCC1` (centres unmarked) [Example P252], the IC50 stood at 617 nM.

With `O=C(C1CC1CC(c1ccc(-c2c(-n3cnnn3)ccc(Cl)c2F)c[n+]1[O-])n1cc(-c2ccncc2)cn1)N1CCC(c2ccccc2)C1` (centres unmarked) [Example P253], the IC50 is 159 nM.

Regarding `O=C(C1CC1CC(c1ccc(-c2c(-n3cnnn3)ccc(Cl)c2F)c[n+]1[O-])n1cc(-c2ccncc2)cn1)N1CCC(C2CC2)C1` (centres unmarked) [Example P254], the IC50 came out at 376 nM.

With `Nc1ccc(-c2cnn(C(Cn3cccn3)c3ccc(-c4c(-n5cnnn5)ccc(Cl)c4F)c[n+]3[O-])c2)c(F)n1` (centres unmarked) [Example P256], the IC50 came to 3 nM.

Turning to `O=C1CCCN1CC(c1ccc(-c2c(-n3cnnn3)ccc(Cl)c2F)c[n+]1[O-])n1cc(-c2ccnc(F)c2)cn1` (centres unmarked) [Example P257], the 50% inhibitory concentration (IC50) was found to be 7.1 nM.

In the case of `NC(=O)C1CC1CC(c1ccc(-c2c(-n3cnnn3)ccc(Cl)c2F)c[n+]1[O-])n1cc(-c2ccncc2)cn1` (centres unmarked) [Example P260], the IC50 came to 72.5 nM.

For the compound `Cn1ncc2cc(-c3cnn(C(CC4CC4)c4ccc(-c5c(-n6cnnn6)ccc(Cl)c5F)c[n+]4[O-])c3)ccc21` (centres unmarked) [Example P265], the IC50 was 88.1 nM.

With `O=C(C1CC1CC(c1ccc(-c2c(-n3cnnn3)ccc(Cl)c2F)c[n+]1[O-])n1cc(-c2ccncc2)cn1)N1CCCC1` (centres unmarked) [Example P266], the IC50 amounted to 197 nM.

`[O-][n+]1cc(-c2c(-n3cnnn3)ccc(Cl)c2F)ccc1C(Cn1cccn1)n1cc(-c2ccncc2)cn1` (centres unmarked) [Example P269]: the IC50 was determined as 6.1 nM.

Consider `[O-][n+]1cc(-c2c(-n3cnnn3)ccc(Cl)c2F)ccc1C(Cn1ccc(-c2ccccc2)n1)n1cc(-c2ccncc2)cn1` (centres unmarked) [Example P270], for which the IC50 came to 268 nM.

For `[O-][n+]1cc(-c2c(-n3cnnn3)ccc(Cl)c2F)ccc1C(CC1CC1)n1cc(-c2ccc3c(c2)OCCO3)cn1` (centres unmarked) [Example P271], the IC50 was 252 nM.

Regarding `[O-][n+]1cc(-c2c(-n3cnnn3)ccc(Cl)c2F)ccc1C(Cn1cc(F)cn1)n1cc(-c2ccnc(C(F)(F)F)c2)cn1` (centres unmarked) [Example P275], the 50% inhibitory concentration (IC50) was 19.1 nM.

With `[O-][n+]1cc(-c2c(-n3cnnn3)ccc(Cl)c2F)ccc1C(Cn1cc(F)cn1)n1cc(-c2ccncc2)cn1` (centres unmarked) [Example P276], the IC50 is 8.1 nM.

As for `COC(=O)Nc1ccc(-c2cnn(C(Cn3cc(F)cn3)c3ccc(-c4c(-n5cnnn5)ccc(Cl)c4F)c[n+]3[O-])c2)cc1` (centres unmarked) [Example P277], the IC50 was 13.3 nM.

Regarding `[2H]C([2H])([2H])Nc1ccc(-c2cnn(C(CCOC([2H])([2H])[2H])c3ccc(-c4c(-n5cnnn5)ccc(Cl)c4F)c[n+]3[O-])c2)cc1` (centres unmarked) [Example P278], the IC50 was 110 nM.

Take `Nc1ccc(-c2cnn(C(Cn3cc(F)cn3)c3ccc(-c4c(-n5cnnn5)ccc(Cl)c4F)c[n+]3[O-])c2)c(F)n1` (centres unmarked) [Example P281]: the IC50 was found to be 2.6 nM.

Consider `Cc1cc(-c2cnn(C(Cn3cccn3)c3ccc(-c4c(-n5cnnn5)ccc(Cl)c4F)c[n+]3[O-])c2)ccn1` (centres unmarked) [Example P285], for which the IC50 turned out to be 16.2 nM.

With `[O-][n+]1cc(-c2cc(Cl)ccc2-n2cnnn2)ccc1C(Cn1cccn1)n1cc(-c2ccnc(C3CC3)c2)cn1` (centres unmarked) [Example P286], the IC50 was 23 nM.

Consider `Cn1cc(-c2cnn(C(CC3CC3)c3ccc(-c4c(-n5cnnn5)ccc(Cl)c4F)c[n+]3[O-])c2)cn1` (centres unmarked) [Example P288], for which the IC50 amounted to 841 nM.

As to `[2H]C([2H])([2H])OCCC(c1ccc(-c2c(-n3cnnn3)ccc(Cl)c2F)c[n+]1[O-])n1cc(-c2ccc(NC(=O)OC)cc2)cn1` (centres unmarked) [Example P289], the 50% inhibitory concentration (IC50) was 13.8 nM.

`O=C(c1cnn(CC(c2ccc(-c3c(-n4cnnn4)ccc(Cl)c3F)c[n+]2[O-])n2cc(-c3ccncc3)cn2)c1)N1CCCCC1` (centres unmarked) [Example P291]: the IC50 amounted to 12.5 nM.

Take `O=C(c1cnn(CC(c2ccc(-c3c(-n4cnnn4)ccc(Cl)c3F)c[n+]2[O-])n2cc(-c3cc[n+]([O-])cc3)cn2)c1)N1CCCCC1` (centres unmarked) [Example P292]: the IC50 is 51.3 nM.

Consider `O=C1c2ccccc2CN1CC(c1ccc(-c2cc(Cl)ccc2-n2cnnn2)c[n+]1[O-])n1cc(-c2ccncc2)cn1` (centres unmarked) [Example P293], for which the IC50 is 67.6 nM.

Turning to `N#Cc1cc(-c2cnn(C(CC3CC3)c3ccc(-c4c(-n5cnnn5)ccc(Cl)c4F)c[n+]3[O-])c2)ccn1` (centres unmarked) [Example P294], the IC50 turned out to be 212 nM.

As for `[O-][n+]1cc(-c2c(-n3cnnn3)ccc(Cl)c2F)ccc1C(CC1CC1)n1cc(-c2ccnc(C(F)(F)F)n2)cn1` (centres unmarked) [Example P295], the IC50 was 385 nM.

`CN(CC(c1ccc(-c2c(-n3cnnn3)ccc(Cl)c2F)c[n+]1[O-])n1cc(-c2ccncc2)cn1)C(=O)c1ccccc1` (centres unmarked) [Example P296]: the IC50 was found to be 36.4 nM.

For `CN(CC(c1ccc(-c2c(-n3cnnn3)ccc(Cl)c2F)c[n+]1[O-])n1cc(-c2ccncc2)cn1)C(=O)Cc1ccccc1` (centres unmarked) [Example P299], the IC50 came out at 24.9 nM.

On to `CC(=O)N(C)CC(c1ccc(-c2c(-n3cnnn3)ccc(Cl)c2F)c[n+]1[O-])n1cc(-c2ccncc2)cn1` (centres unmarked) [Example P302], for which the IC50 worked out at 54.6 nM.

Regarding `COC(=O)N(C)CC(c1ccc(-c2c(-n3cnnn3)ccc(Cl)c2F)c[n+]1[O-])n1cc(-c2ccncc2)cn1` (centres unmarked) [Example P303], the IC50 came out at 32.7 nM.

Consider `COC(=O)Nc1ccc(-c2cnn(C(Cn3ccccc3=O)c3ccc(-c4c(-n5cnnn5)ccc(Cl)c4F)c[n+]3[O-])c2)cc1` (centres unmarked) [Example P305], for which the IC50 is 5.5 nM.

As to `Cc1cc(-c2cnn(C(CCOC(F)F)c3ccc(-c4c(-n5cnnn5)ccc(Cl)c4F)c[n+]3[O-])c2)ccn1` (centres unmarked) [Example P307], the IC50 came out at 7.7 nM.

With `[O-][n+]1cc(-c2c(-n3cnnn3)ccc(Cl)c2F)ccc1C(Cn1cccn1)n1cc(-c2ccnc(F)c2)cn1` (centres unmarked) [Example P309], the IC50 stood at 9.2 nM.

Consider `Cc1cc(-c2cnn(C(Cn3cccn3)c3ccc(-c4c(-n5cnnn5)ccc(Cl)c4F)c[n+]3[O-])c2)ccn1` (centres unmarked) [Example P310], for which the IC50 amounted to 9 nM.

For `[O-][n+]1cc(-c2c(-n3cnnn3)ccc(Cl)c2F)ccc1C(CC1CC1)n1cc(-c2ccnc(OC(F)F)c2)cn1` (centres unmarked) [Example P313], the IC50 is 151 nM.

Consider `[O-][n+]1cc(-c2c(-n3cnnn3)ccc(Cl)c2F)ccc1C(Cn1cccn1)n1cc(-c2ccnc(C(F)F)c2)cn1` (centres unmarked) [Example P318], for which the IC50 was 13.9 nM.

Turning to `[O-][n+]1ccc(-c2cnn(C(Cn3cccn3)c3ccc(-c4c(-n5cnnn5)ccc(Cl)c4F)c[n+]3[O-])c2)nc1` (centres unmarked) [Example P320], the IC50 was found to be 128 nM.

Take `[O-][n+]1cc(-c2cc(Cl)ccc2-n2cnnn2)ccc1C(Cn1cc(C(F)(F)F)cn1)n1cc(-c2ccnc(F)c2)cn1` (centres unmarked) [Example P321]: the IC50 is 94.9 nM.

As for `CN(CC(c1ccc(-c2c(-n3cnnn3)ccc(Cl)c2F)c[n+]1[O-])n1cc(-c2ccncc2)cn1)C(=O)CC(=O)N1CCCCC1` (centres unmarked) [Example P322], the IC50 came to 83.4 nM.

For the compound `CN(CC(c1ccc(-c2c(-n3cnnn3)ccc(Cl)c2F)c[n+]1[O-])n1cc(-c2ccncc2)cn1)OC(F)(F)F` (centres unmarked) [Example P323], the IC50 came to 23 nM.

With `Cn1cc2cc(-c3cnn(C(CC4CC4)c4ccc(-c5c(-n6cnnn6)ccc(Cl)c5F)c[n+]4[O-])c3)ccc2n1` (centres unmarked) [Example P326], the IC50 turned out to be 47.9 nM.

`[O-][n+]1cc(-c2c(-n3cnnn3)ccc(Cl)c2F)ccc1C(Cn1cc(C(F)(F)F)cn1)n1cc(-c2ccnc(F)c2)cn1` (centres unmarked) [Example P331]: the IC50 was 28.5 nM.

Regarding `[O-][n+]1cc(-c2c(-n3cnnn3)ccc(Cl)c2F)ccc1C(Cn1cc(F)cn1)n1cc(-c2ccnc(C(F)(F)F)c2)cn1` (centres unmarked) [Example P332], the IC50 was 59.5 nM.

As for `[O-][n+]1cc(-c2c(-n3cnnn3)ccc(Cl)c2F)ccc1C(Cn1cc(F)cn1)n1cc(-c2ccnc(C(F)(F)F)c2)cn1` (centres unmarked) [Example P333], the IC50 is 17.2 nM.

`Cc1nc(N)ccc1-c1cnn(C(CCOC(F)F)c2ccc(-c3c(-n4cnnn4)ccc(Cl)c3F)c[n+]2[O-])c1` (centres unmarked) [Example P342]: the IC50 was 4.3 nM.

In the case of `CN(CC(c1ccc(-c2c(-n3cnnn3)ccc(Cl)c2F)c[n+]1[O-])n1cc(-c2cc[n+]([O-])cc2)cn1)C(=O)c1ccccc1` (centres unmarked) [Example P344], the IC50 amounted to 175 nM.

Regarding `CN(CC(c1ccc(-c2c(-n3cnnn3)ccc(Cl)c2F)c[n+]1[O-])n1cc(-c2cc[n+]([O-])cc2)cn1)C(=O)Cc1ccccc1` (centres unmarked) [Example P345], the concentration for half-maximal inhibition (IC50) is 152 nM.

For the compound `[O-][n+]1cc(-c2c(-n3cnnn3)ccc(Cl)c2F)ccc1C(Cn1nccc1C(F)(F)F)n1cc(-c2ccnc(F)c2)cn1` (centres unmarked) [Example P346], the IC50 was determined as 11.8 nM.

On to `CC1(C(=O)NCC(c2ccc(-c3cc(Cl)ccc3-n3cnnn3)c[n+]2[O-])n2cc(-c3ccnc(F)c3)cn2)CC1` (centres unmarked) [Example P347], for which the IC50 was found to be 806 nM.

For the compound `[O-][n+]1ccc(-c2cnn(C(Cn3cccn3)c3ccc(-c4c(-n5cnnn5)ccc(Cl)c4F)c[n+]3[O-])c2)cc1` (centres unmarked) [Example P348], the IC50 was 27.2 nM.

In the case of `CC(=O)N(C)CC(c1ccc(-c2c(-n3cnnn3)ccc(Cl)c2F)c[n+]1[O-])n1cc(-c2cc[n+]([O-])cc2)cn1` (centres unmarked) [Example P351], the half-maximal inhibitory concentration (IC50) stood at 131 nM.

In the case of `[O-][n+]1cc(-c2c(-n3cnnn3)ccc(Cl)c2F)ccc1C(Cn1cc(F)cn1)n1cc(-c2ccnc(F)c2)cn1` (centres unmarked) [Example P352], the IC50 amounted to 13.4 nM.

Regarding `[O-][n+]1cc(-c2c(-n3cnnn3)ccc(Cl)c2F)ccc1C(Cn1ccc(C(F)(F)F)n1)n1cc(-c2ccnc(F)c2)cn1` (centres unmarked) [Example P357], the IC50 was 23.7 nM.
